Source: US20180284132A1, “KITS FOR STRATIFYING SCOLIOTIC SUBJECTS” (CHU SAINTE-JUSTINE, priority 2013, published 2018)
Blank lines part the entries; values can stand above or below the compound they belong to.

Assays:
[1] = tested on: response to Gi stimulation; assay: Effect of serine/threonine kinase inhibitors on response to Gi stimulation in osteoblasts (CDS); assay type: cell-based, human; details: inhibitor 5 μM, 1 hour before agonist
Description: FIG. 13A-FIG. 13B show the effect of various serine/threonine kinase inhibitors on response to Gi stimulation in osteoblasts from control and AIS functional groups. Cells were treated with Protein kinase A (PKA) inhibitor H89 (5 μM), Protein kinase C (PKC) inhibitor Gö6983 (5 μM), Ca^2+/calmodulin-dependent protein kinase (CaMK) (1,2,4) inhibitor STO-609 acetate (5 μM), Ca^2+/calmodulin-dependent protein kinase II (CaMK-2) inhibitor KN93 (5 μM), Casein kinase 1 (CK1) inhibitor D4476 (5 μM) or vehicle for 1 hour prior to stimulation with (FIG. 13A) LPA (10^−6 M) or (FIG. 13B) Somatostatin (10^−6 M). Response to Gi stimulation was measured by CDS. Data were normalised to response in osteoblasts treated with vehicle (% response in presence of vehicle shown on the y-axis and measured by CDS), and are expressed as mean±SE, of n=12 patients in each functional group. * P<0.05, **P<0.01, ***P<0.001, vs control group.
(§1) The functionality of Gi, Gs and Gq proteins was evaluated by CDS assay in osteoblasts, and the functionality of Gi was also evaluated by CDS assay in myoblasts and PBMCs from the same individuals, using CellKey™ apparatus, as previously described (Akoume et al., 2010 and WO 2010/040234, 2010 to Moreau et al.).
In order to identify putative serine/threonine kinases phosphorylating Gi isoforms in AIS, control and AIS osteoblasts were treated with a panel of serine/threonine kinase inhibitors prior to their stimulation with two distinct agonists (LPA and somatostatin). Of note, Gi stimulation induced via LPA or somatostatin receptor activation by their agonists in control osteoblasts was not affected by any kinase inhibitor (FIG. 13A-FIG. 13B). […] Cellular response in FG3 osteoblasts was not improved by inhibition of neither of PKC nor CaMK.

beta-adrenergic receptor = assay: Functional status of Gs protein in osteoblasts, isoproterenol challenge (CDS); assay type: cell-based, human
Description: as §1

[2] = tested on: response to Gi stimulation; assay: Effect of Gi and Gs siRNA on response to Gi stimulation in osteoblasts (CDS); assay type: cell-based, human
Description: FIG. 12A-FIG. 12H show the differential effects of Gi and Gs siRNA on response to Gi stimulation in AIS functional groups. Osteoblasts from (FIG. 12A) control subjects, (FIG. 12B) FG3, (FIG. 12C) FG2; and (FIG. 12D) FG1 were transfected with Gi1, Gi2, Gi3 or Gs siRNA alone or in combination, or with scrambled siRNA, as indicated in Example 1—Materials and Methods. Efficiency of siRNA was verified with qPCR in each functional group (FIG. 12E to FIG. 12H) 48 hours after transfection, and response to Gi stimulation was measured by CDS and evaluated by challenging cells with Apelin-17, LPA or Somatostatin. Results from a single representative subject for each group are presented. Data were normalised to response in cells transfected with scrambled siRNA (% response shown on the y-axis and measured by CDS), and are expressed as mean±SE, of n=6 patients in each functional group. * P<0.05, **P<0.01, ***P<0.001, vs. control group.
as §1
All Gi1, Gi2, Gi3, Gs and scrambled siRNA were obtained from Ambion (Ambion USA). Osteoblasts from control subjects and AIS patients were transiently transfected in serum-free medium, using Lipofectamine RNAiMAX™ reagent (Invitrogen) according to the manufacturer's instructions and functional experiments were performed 48 h post transfection. The gene knockdown was evaluated by quantitative real-time PCR (qPCR).
Silencing of each gene reduced by 75-85% the expression of the corresponding mRNA in osteoblasts from control and the three AIS groups (FIGS. 12E-H). […] The response to each tested agonist was reduced by at least 75% by silencing Gi3 alone in FG2 osteoblasts (FIG. 12C), and by 90% by silencing Gi1 alone in FG3 osteoblasts ([…]) confirming that the residual response to Gi stimulation is mediated by Gi3 and Gi1 isoforms in FG2 and FG3 groups, respectively. In FG1 osteoblasts, response to each agonist was reduced by 50% following the depletion of all Gi isoforms by siRNA, and was not affected by the knockdown of individual Gi isoforms ([…]).

melatonin receptor [3] = assay: Cellular response of osteoblasts to melatonin receptor agonists, cellular dielectric spectroscopy (CDS); assay type: cell-based, human; details: for order of agonist potency: response at maximum concentration (10 μM), osteoblasts of control and AIS groups
Description: (§2) Data were normalised to maximal response (% maximal response) in cells from control subjects. […] The impedance represented in y-axis as dZiec, indicates the resistance (ohms) of the cells toward the electric current applied by the Cellkey™ apparatus and represents the integrated cellular response. […] Cellular responses shown on the y-axis in (FIG. 3A) to (FIG. 3E) were measured by CDS.
Osteoblasts were isolated from bone specimens obtained intraoperatively from vertebras (varying from T3 to L4 according to the surgical procedure performed) and from other anatomical sites (tibia or femur) in AIS patients and trauma control cases, respectively as previously described (Moreau et al., 2004).
as §1
The response produced with their maximum concentration (10 μM) in osteoblasts from control subjects and AIS patients of each functional group was compared.

Gi proteins = assay: Inhibition by GPAnt-2 or pertussis toxin of osteoblast response to Gi-coupled receptor agonists (CDS); assay type: cell-based, human; details: for effect on cellular response to melatonin: 16 hours
Description: as §2, §1

melatonin receptor [4] = details: normal osteoblasts; CDS (Akoume et al., 2010); cited from earlier work

- effect on response to Gi stimulation via LPA or somatostatin ([1]; FG1 osteoblasts): unaffected
- effect on response to Gi stimulation via LPA or somatostatin ([1]; FG2 osteoblasts): increased the signalling response
- effect on response to Gi stimulation via LPA or somatostatin ([1]; FG3 osteoblasts): not improved
Compound: COc1ccc(S(=O)(=O)N(CCO)c2ccccc2CN(C)C/C=C/c2ccc(Cl)cc2)cc1 [KN93]

- cellular response, AIS osteoblasts vs control osteoblasts (beta-adrenergic receptor): significantly enhanced
Compound: CC(C)NCC(O)c1ccc(O)c(O)c1 (stereo not shown) [isoproterenol]

- effect on response to Gi stimulation via LPA or somatostatin ([1]; FG1 osteoblasts): increased response
- effect on response to Gi stimulation via LPA or somatostatin ([1]; FG3 osteoblasts): increased response
Compound: NC(=O)c1ccc(-c2nc(-c3ccc4c(c3)OCCO4)c(-c3ccccn3)[nH]2)cc1 [D4476]

Compound: Gs siRNA: siRNA from Ambion, ACAACAUGGUCAUCCGGGAGGACAA (SEQ ID NO: 100)
- reduction of response to each tested agonist ([2]; FG1 osteoblasts): 50%
- reduction of response to each tested agonist ([2]; FG2 osteoblasts): devoid of effect
- reduction of response to each tested agonist ([2]; FG3 osteoblasts): devoid of effect
- reduction of response to each tested agonist ([2]; control group osteoblasts): devoid of effect

- effect on response to Gi stimulation via LPA or somatostatin ([1]; FG1 osteoblasts): increased the signalling response
- effect on response to Gi stimulation via LPA or somatostatin ([1]; FG2 osteoblasts): increased the signalling response
- effect on response to Gi stimulation via LPA or somatostatin ([1]; FG3 osteoblasts): increased the signalling response
Compound: O=S(=O)(NCCNC/C=C/c1ccc(Br)cc1)c1cccc2cnccc12 [H89]

- order of agonist potency (melatonin receptor [3]): phenylmelatonin>iodomelatonin>melatonin
Compound: COc1ccc2[nH]c(-c3ccccc3)c(CCNC(C)=O)c2c1 [phenylmelatonin]

- effect on response to Gi stimulation via LPA or somatostatin ([1]; FG1 osteoblasts): significantly increased
- effect on response to Gi stimulation via LPA or somatostatin ([1]; FG2 osteoblasts): increased the signalling response
- effect on response to Gi stimulation via LPA or somatostatin ([1]; FG3 osteoblasts): not improved
Compound: STO-609 acetate

Compound: Gi2 siRNA: siRNA from Ambion, GAGGACCUGAAUAAGCGCAAAGACA (SEQ ID NO: 98)
- reduction of response to each tested agonist ([2]; control group osteoblasts): not significantly affected

- effect on response to Gi stimulation via LPA or somatostatin ([1]; FG1 osteoblasts): significantly increased
- effect on response to Gi stimulation via LPA or somatostatin ([1]; FG2 osteoblasts): devoid of significant effect
- effect on response to Gi stimulation via LPA or somatostatin ([1]; FG3 osteoblasts): not improved
Compound: COc1ccc2c(c1)c(C1=C(c3c[nH]c4ccccc34)C(=O)NC1=O)cn2CCCN(C)C [Gö8963, Gö6983]

- order of agonist potency (melatonin receptor [3]): phenylmelatonin>iodomelatonin>melatonin
Compound: COc1ccc2[nH]c(I)c(CCNC(C)=O)c2c1 [iodomelatonin]

Compound: pertussis toxin [PTX]
- effect on cellular response to melatonin (Gi proteins; FG1 osteoblasts, maximal concentration): enhanced the response to melatonin
- effect on cellular response to melatonin (Gi proteins; FG2 and FG3 osteoblasts, increasing concentration): reduced the cellular response to melatonin
- effect on response to mastoparan (Gi proteins; high concentrations, all AIS and control groups): almost abolished
- inhibition curve patterns (Gi proteins; response to any of the five synthetic agonists, osteoblasts (GPAnt-2 4 h, PTX 16 h)): curve patterns similar to those obtained with melatonin

- order of magnitude of the maximum response from highest to lowest (melatonin receptor [3]; osteoblasts, control vs AIS functional groups): control group, FG3, FG2 and FG1
- order of agonist potency (melatonin receptor [3]): phenylmelatonin>iodomelatonin>melatonin
Compound: COc1ccc2[nH]cc(CCNC(C)=O)c2c1 [melatonin]
- concentration at which the response reaches a plateau (melatonin receptor [3]; osteoblasts, all control and AIS groups): 1 µM
- cellular response to melatonin (melatonin receptor [3]; osteoblasts, all control and AIS groups, CDS): concentration-dependent increase of response
- G protein dependence of cellular response to melatonin receptor stimulation (melatonin receptor [4]): mainly Gi-dependent in normal osteoblasts
